Results reported in US8252507B2, “Photoactive compound and photosensitive resin composition comprising the same” (LG Chem, Ltd., priority 2008, dated 2012).

Assay: Solubility measurement in organic solvents
Format: physicochemical
Conditions: for Solubility in 3-MBA: amount (g) of compound completely dissolved in 3-methoxybutyl acetate; for Solubility in CH: amount (g) of compound completely dissolved in cyclohexanone; for Solubility in DPM: amount (g) of compound completely dissolved in dipropylene glycol methyl ether; for Solubility in EEP: amount (g) of compound completely dissolved in ethyl-3-ethoxy propionate; for Solubility in PGMEA: amount (g) of compound completely dissolved in propylene glycol methyl ether acetate
Procedure: The solubilities of Irgacure OXE-02 (Ciba Specialty Chemical) of Comparative Example 1, the compounds of Comparative Examples 2-3, and the compound of Example 1, which contains oxime ester moieties, were measured in various solvents, including propylene glycol methyl ether acetate (PGMEA), dipropylene glycol methyl ether (DPM), 3-methoxybutyl acetate (MBA), ethyl-3-ethoxy propionate (EEP) and cyclohexanone (CH). The solubility of each of the compounds was determined by measuring the amount (g) of the compound completely dissolved in the corresponding solvent.

Structure (SMILES) | Solubility in 3-MBA [g] | Solubility in CH [g] | Solubility in DPM [g] | Solubility in EEP [g] | Solubility in PGMEA [g]
CCn1c2ccc(C(=O)c3ccccc3C)cc2c2cc(/C(C)=N/OC(C)=O)ccc21 [Comparative Example 1] | 10 | 40 | 5 | 10 | 12
CC(=O)O/N=C(\C)c1ccc(-c2nc(C(Cl)(Cl)Cl)nc(C(Cl)(Cl)Cl)n2)cc1 [Comparative Example 2, 2,4-trichloromethyl-(4′-acetylphenylacetoxime)-6-triazine] | 5 | 25 | 3 | 6 | 7
CC(=O)O/N=C/c1ccc(-c2ccc(-c3nc(C(Cl)(Cl)Cl)nc(C(Cl)(Cl)Cl)n3)cc2)cc1 [Comparative Example 3, 2,4-trichloromethyl-(4′-formylbiphenylacetoxime)-6-triazine] | 5 | 20 | 2 | 5 | 7
CCn1c2ccc(C(=O)c3ccc(OCC4COC(C)(C)O4)cc3)cc2c2cc(/C(CC(c3ccccc3)N(OC(C)=O)C(C)=O)=N/OC(C)=O)ccc21 (centres unmarked) [Example 1] | 13 | 60 | 7 | 15 | 20
